According to article PMC8623418, “Novel Multitarget Hydroxamic Acids with a Natural Origin CAP Group against Alzheimer’s Disease: Synthesis, Docking and Biological Evaluation” (Pharmaceutics, 2021):

Assays:
β-amyloid 1–40 = β-amyloid 1–40 aggregation, Thioflavin T fluorescence; format: biochemical; conditions: 100 μM, 72 h incubation
Experimental: The effect of the studied compounds on the aggregation of β-amyloid (1–40/1–42) was analyzed using the method of recording Thioflavin T fluorescence (10 µM) for 72 h at 37 °C. The fluorescence signal was measured using a multifunctional flatbed analyzer, the Cytation ™ 3 (BioTek Instruments, Inc., Winooski, VT, USA), at λex = 450 nm, λem = 480 nm.
The effect of hydroxamic acids on the stage of aggregation of the pathological β-amyloid peptide was investigated for 72 h using two model systems—fragments Aβ1–40 and Aβ1–42. The fluorophore Thioflavin T was used as an indicator of the ongoing fibrillation process, the interaction of which with proteins in the state of amyloid fibrils leads to an increase in the fluorescence signal.

SH-SY5Y cells = assay: MTT cell viability, SH-SY5Y; format: cell-based; conditions: Homo sapiens, MTT test
Experimental: The effect of the hydroxamic acids on the viability of cells obtained from human embryonic kidneys, HEK 293, as well as the native form of human neuroblastoma, SH-SY5Y, was evaluated in the MTT test. Using a multifunctional flatbed analyzer, Cytation™3 (BioTek Instruments, Inc., Winooski, VT, USA), the optical density was determined at a wavelength of 530 nm. Based on the dose-dependent curves, the concentration values leading to 50% inhibition of cell population growth (IC50) were calculated.
Due to the fact that most compounds of the class of hydroxamic acids have high cytotoxic activity and are mainly used as anticancer drugs, their use as neuroprotective drugs is limited. Since the goal of our work was to search for agents for the pharmacological correction of neurodegenerative diseases, a necessary part of the biological activity study of the synthesized hydroxamic acids was to determine their effect on the survival of cell cultures. In our work, we used neuron-like neuroblastoma cells SH-SY5Y and a healthy cell line isolated from the human embryonic kidney, HEK 293.

[1] = Stability in rat blood plasma, LC–MS/MS; format: in vitro ADME; conditions: 1000 ng/mL spike
Experimental: EDTA-stabilized rat blood plasma was used in the study. The spikes were prepared by adding 100 µL of the solution of a compound to 900 µL of plasma, followed by continuous shaking. A 100 µL aliquot of a sample was taken and mixed with 900 µL of MeOH, shaken for 15 min, and centrifuged. Then, 100 µLc of the supernatant was transferred to a vial insert and analyzed.
HPLC–MS/MS analyses were performed using a Shimadzu LC-20AD Prominence chromatograph equipped with a SIL-20AC cooled autosampler and a gradient pump. A column filled with a reversed-phase ProntoSil 120-AQ C18 sorbent (Econova, Novosibirsk) was used. Water with the addition of 0.1% HCOOH was used as mobile phase A, and methanol containing 0.1% HCOOH was used as mobile phase B. The gradient was as follows: 0 min—5% B; 1 min—5% B; 2 min—95% B; 5 min—100% B; the flow rate was 300 μL/min; the injection volume was 10 μL. The column was then equilibrated for the following analysis. […]
To study the stability of the compounds, their solutions (spikes) in rat blood plasma were prepared with a concentration of 1000 ng/mL. […] Aliquots of the spike with a volume of 100 μL were taken after 5, 15, 30, 60, 120, 180, and 270 min, after which the sample was mixed with MeOH, shaken for 10 min, then centrifuged and analyzed with LC–MS/MS.

5xFAD transgenic mice = assay: Ex vivo Congo red staining of Aβ plaques in brain sections; conditions: compared to untreated 5XFAD mice
Experimental: For histological examination, the mouse brain was fixed in 10% neutral buffered formalin (Leica Biosystems Inc., Buffalo Grove, IL, USA) at +4 °C for 24 h. Then, the material was dehydrated, defatted, and clarified in a Leica ASP200 apparatus (Leica Biosystems Inc., Buffalo Grove, IL, USA) using ethanol-xylene wiring according to the following scheme: deionized water—2 h; 70% ethanol—12 h; ethanol 96% sequentially—1 h, 30 min, 2 portions 15 min each; a mixture of ethanol and xylene 1:1—20 min; xylene—2 portions for 30 min each; paraffin—3 times for 1 h each. Then, the material was embedded in paraffin blocks using a Leica EG1160 apparatus (Leica Biosystems Inc., Buffalo Grove, IL, USA). […] The results were evaluated using a ZEISS LSM 880 laser scanning microscope with an Airyscan module (Carl Zeiss Vision, Jena, Germany). […] A 10 × 10 grid was imposed on images containing only brain tissue; then, in 10 grid cells located obliquely from top left to right bottom corner, we selected plaques using the ‘magic wand’ tool, so the average plaque area and luminosity were calculated. Three images were analyzed for each animal in each group; then, the average of three animals was calculated. […]

SMILES	Effect on β-amyloid 1–40 aggregation (β-amyloid 1–40)	IC50 (SH-SY5Y cells) [µM]	half-life at 1000 ng/mL ([1]; rat, EDTA-stabilized rat blood plasma, estimated from the graph) [h]	Reduction in plaque load (Congo red-positive amyloid) (5xFAD transgenic mice)	Time stable in rat blood plasma [1] [h]
O=C(CCCCCCC(=O)NC1C2CC3CC(C2)CC1C3)NO (centres unmarked) [compound 15, N^1-(Adamant-2-yl)-N^8-Hydroxyoctanediamide]	noticeable fibrillation inhibition	47.6 ± 7.19	1 to 1.17	45%	
O=C(/C=C/c1ccc(C(=O)NO)cc1)NC1C2CC3CC(C2)CC1C3 (centres unmarked) [compound 25, 4-((E)-3-((-Adamantan-2-yl)amino)-3-Oxoprop-1-en-1-yl)-N-Hydroxybenzamide]	noticeable fibrillation inhibition	59.51 ± 0.42		No changes in β-amyloid plaque level	≥ 4.5
